Results: US11401376B2, “Chemical compounds for coating of nanostructures” (Spago Nanomedical AB, priority 2017, dated 2022)

Tests used:
Type in all cases: physicochemical
[1] = Heat treatment, loss of coating (Example 17); settings: for Loss of coating: coated nanostructures, 80° C. for 30 minutes, washed on 10 kDa filter, Si/P ratio by ICP-OES
Description: The sample was moved to a 20 mL flask and degassed by three N2-vacuum cycles and was then kept under N2. The sample was heated in a silicon oil bath at 80° C. for 30 minutes and was then cooled to ambient room temperature. A reference aliquot was withdrawn (A). The remaining sample was washed with four times with milliQ water on a 10 kDa Vivaspin 6 centrifugation filter (Sartorious). A reference aliquot (B) was withdrawn from the retentate. Reference aliquots A, and B were analyzed with ICP-OES.

[2] = Calcium induced aggregation of the coated nanostructures (Example 15); settings: 0-8 mM CaCl2, 10 mM Tris-HCl 150 mM NaCl pH 7.4, 1 h room temperature
Description: Volumes of nanostructure were added to 1 ml aliquots of 10 mM Tris-HCl 150 mM NaCl pH 7.4 containing 0, 0.5, 1, 2, 4 and 8 mM CaCl2) in microcentrifuge tubes so that the final concentration of phosphorus was 0.5 mM. The samples were vortexed, incubated at room temperature for 1 h and centrifuged for 10 min at 12000×g. The supernatants (700 μl) were removed and analyzed by ICP for phosphorus concentrations. The phosphorus concentrations were normalized to the concentration in corresponding samples without CaCl2) and plotted as ‘% remaining in solution’ against the concentration of CaCl2) in the reaction mixture. When 90% or more remains in solution the material is considered robust against calcium induced aggregation.

[3] = Stability of coated nanostructures on manganese loading / process conditions (GFC, Example 18)
Description: 200 ml of the crude solution of coated nanostructures of Example 13b was added a solution of 0.256 g MnCl2.4H2O dissolved in 2.56 ml ethylene glycol. The pH was adjusted to 4.07 with 1 M NaOH. The manganese solution was added to the reaction. An aliquot A was taken out. The reaction was heated at 100° C. for 25 h 30 min after which the temperature descended to ambient room temperature. An aliquot B was withdrawn.

Substance: 1-[ω-methyl-(ethyleneoxy)12-20]-3-(prop-3-triethoxysilyl-1-yl- [A]
- Loss of coating [1]: 5%
- hydrolysis of the coating bound to polymeric nanostructures ([1]; neutral to basic conditions): prone to slow hydrolysis
- Ca resistance [2]: Y (When 90% or more remains in solution the material is considered robust against calcium induced aggregation)

Substance: 4-[ω-methyl-(ethyleneoxy)12-20]hepta-1,6-diene [Compound 43]
- Loss of coating [1]: 0%

Substance: N,N-bis(prop-3-trimethoxysilyl-1-yl)-2-[ω-methyl-(ethyleneoxy)8-11]acetamide [Compound 54]
- stability of coated nanostructures under the coating / process conditions [3]: degraded substantially
